# Like-named read-outs stand apart in the source and are kept apart here. Marks after values point to notes of the source that are not given here.
# What was measured:
# [1] = tested on: ventricular papillary muscle cell of guinea pig; assay: Action potential of the ventricular papillary muscle cell of guinea pig (electrophysiological recording); type: cell-based; details: for percent change in action potential duration at 0.0005 µM / percent change in action potential duration at 0.005 µM / percent change in action potential duration at 0.05 µM: Cavia porcellus, 20 min, read-out: APD, Change rate (%); for APD50, Pre-administration / APD90, Pre-administration: baseline; for Effect on the APD value of the action potential of the papillary muscle (in words): Table 3 summary
# Protocol: Method: One guinea pig was taken to violently hit the back of the brain such that it fainted. The common carotid artery was cut off for bleeding to kill the guinea pig. The chest was incised to expose the heart, and the ventricle was cut open along the interventricular septum to expose the lumen of the left ventricle. The papillary muscles were quickly taken out and placed in a Kreb's solution saturated with O2 (mixed gas of 95% O2 and 5% CO2) at 0° C. After the microscopic dressing, the papillary muscle specimen was fixed with a stainless steel needle on the silicone rubber at the bottom of the perfusion bath, and perfused with the oxygen-saturated Kreb's solution. The relevant parameters for perfusion: the temperature was 37±0.5° C., and the flow rate was 4 mL/min.
# Cellular action potentials were recorded using a conventional electrophysiological method. The glass electrode filled with 3M KCl saturated solution and having a tip resistance of 15-30 MΩ was fixed on the microelectrode manipulator MP-2. The glass electrode was gently inserted into the superficial layer of the prepared papillary muscle specimen using a microelectrode pusher. The electrode was adjusted to provide the predetermined bioelectrical stimulation with the triple-channel SEN-7203 electronic stimulator and SS-202 J isolator. The bioelectrical signal was amplified by the MEZ-8301 amplifier and then input to the computerized electrophysiological recording and analysis system Powerlab 4/25. Subsequently, the relevant parameters of the action potential for the ventricular papillary muscle were analyzed through the analysis system. The relevant parameters for electrical stimulation: 30 ms latency, 7 ms wavewidth, 1 Hz frequency, 52.1 my stimulation intensity.
# In the compound screening test stage, after the ventricular papillary muscle specimen of the guinea pig was fixed, it was first perfused with a normal Kreb's solution for about 85 minutes for stabilization, and the relevant parameters of the cellular action potential before administration were recorded at about 80 min after the start of perfusion. The three-limb tube was used to convert the perfusates containing the title compounds. The title compounds were continuously perfused for about 25 min successively with low (0.0005 μM), medium (0.005 μM), and high (0.05 μM) concentrations, respectively. At about 20 min after the start of drug perfusions at different concentrations, the relevant parameters of the action potentials for the ventricular papillary muscle of guinea pig were observed and recorded, respectively. The normal Kreb's solution was used to perfuse and elute for about 25 min during the intervals between drug perfusions at different concentrations.
# The experiment was divided into the following five groups with 6 animals in each group: a vehicle control group, a 369 low dose (0.0005 μM) group, a 369 medium dose (0.005 μM) group, a 369 high dose (0.05 μM) group, and an amiodarone (10 μM) positive control group. After the ventricular papillary muscle specimen of the guinea pig was fixed, it was first perfused with a normal Kreb's solution for about 85 minutes for stabilization, and the relevant parameters of the cellular action potential before administration were recorded at about 80 min after the start of perfusion. According to groups, the three-limb tube was configured to convert the perfusates containing the vehicle, positive control, or Compound 369 at the corresponding concentrations to continuously perfuse for about 25 min. At about 20 min after the start of the perfusions, the relevant parameters of the action potentials for the ventricular papillary muscle of guinea pig were observed and recorded.
# [2] = tested on: guinea pig heart; assay: Atrial fibrillation induced by high- and low-potassium Langendorff perfusion of the guinea pig heart; details: for Incidence (%) of atrial fibrillation / Number of animals developing atrial fibrillation: within 60 min of low-potassium perfusion
# Excerpt: Method: a total of 24 guinea pigs were divided into 4 groups according to body weight, and were sacrificed. The heart was quickly taken out, and the blood was squeezed in the ice bath perfusion solution. The heart was quickly transferred in the Langendorff perfusion system, and the perfusion at a constant rate was started by turning on the oxygen-saturated perfusate. One end of the electrode was placed at the cardiac apex, and one end was placed at the right atrium (the position of the atrial appendage). The electrocardiogram was recorded on the computer.
# After the heart was stabilized, 10 min after the perfusion of high-K perfusate, blank vehicle, 0.1 μM, 1 μM, and 10 μM of Compound 369, 1 μM Amiodarone and Cyclovirobuxine D were simultaneously administrated and the high K perfusion was continued for 20 min, respectively. Then, the high K perfusion was removed to administrate the low-K perfusate, and the electrocardiogram was obtained at the same time to record whether there was atrial fibrillation within 60 min of low-potassium perfusion.
# [3] = Pharmacokinetics in Beagle canines; type: in vivo; details: dog, in vivo
# Protocol: Method: Six healthy male Beagle canines were selected and divided into two groups. 2 mg/kg of Compound 369 or cyclovirobuxine D was administrated intragastrically, respectively. Blood samples (about 2 mL) were collected from the limb venous of canines 0 h before administration as well as 0.25 h, 0.5 h, 1 h, 2 h, 4 h, 6 h, 8 h, and 12 h after administration. The concentrations of Compound 369 and cyclovirobuxine D in plasma samples were determined by LC-MS/MS, and the pharmacokinetic parameters were calculated by DAS.3.0 software.
smiles,measurement,setting,value
"CN[C@H]1CC[C@]23C[C@]24CC[C@]2(C)C(C(C)=O)=CC[C@@]2(C)[C@@H]4CC[C@H]3C1(C)C [Compound 369, (3β,5α)-4,4,14-trimethyl-3-(methylamino)-9,19-cyclopregnan-16-en-20-one]","Effect on APD, APD50 and APD90 (in words)","[1]; 0.0005 μM, 0.005 μM and 0.05 μM, concentration-dependent","can prolong APD, APD50 and APD90"
same,percent change in action potential duration at 0.0005 µM,"[1]; n = 6, x ± SD, 0.0005 μM",43.6%
same,percent change in action potential duration at 0.005 µM,"[1]; n = 6, x ± SD, 0.005 μM",43.5%
same,percent change in action potential duration at 0.05 µM,"[1]; n = 6, x ± SD, 0.05 μM",66.5%
same,percent change in action potential duration at 0.0005 µM,"[1]; screening stage, 0.0005 μM",26.8%
same,percent change in action potential duration at 0.005 µM,"[1]; screening stage, 0.005 μM",47.9%
same,percent change in action potential duration at 0.05 µM,"[1]; screening stage, 0.05 μM",65.7%
same,"APD50, Change rate (%)","[1]; n = 6, x ± SD, 0.0005 μM",49.41% ± 16.99%
same,"APD50, Post-administration","[1]; n = 6, x ± SD, 0.0005 μM",0.0572 ± 0.0247^a
same,"APD90, Change rate (%)","[1]; n = 6, x ± SD, 0.0005 μM",44.30% ± 17.58%^b
same,"APD90, Post-administration","[1]; n = 6, x ± SD, 0.0005 μM",0.0795 ± 0.0260^a
same,"APD, Post-administration","[1]; n = 6, x ± SD, 0.0005 μM",0.0930 ± 0.0246^a
same,"APD50, Pre-administration","[1]; n = 6, x ± SD, 0.0005 μM group",0.0365 ± 0.0183
same,"APD90, Pre-administration","[1]; n = 6, x ± SD, 0.0005 μM group",0.0537 ± 0.0235
same,"APD50, Change rate (%)","[1]; n = 6, x ± SD, 0.005 μM",47.25% ± 28.78%
same,"APD50, Post-administration","[1]; n = 6, x ± SD, 0.005 μM",0.0610 ± 0.0342^a
same,"APD90, Change rate (%)","[1]; n = 6, x ± SD, 0.005 μM",40.25% ± 24.21%^b
same,"APD90, Post-administration","[1]; n = 6, x ± SD, 0.005 μM",0.0838 ± 0.0345^a
same,"APD, Post-administration","[1]; n = 6, x ± SD, 0.005 μM",0.1023 ± 0.0365^a
same,"APD50, Pre-administration","[1]; n = 6, x ± SD, 0.005 μM group",0.0428 ± 0.0244
same,"APD90, Pre-administration","[1]; n = 6, x ± SD, 0.005 μM group",0.0604 ± 0.0243
same,"APD50, Change rate (%)","[1]; n = 6, x ± SD, 0.05 μM",101.63% ± 62.10%^b
same,"APD50, Post-administration","[1]; n = 6, x ± SD, 0.05 μM",0.0764 ± 0.0270^a
same,"APD90, Change rate (%)","[1]; n = 6, x ± SD, 0.05 μM",70.81% ± 46.76%^b
same,"APD90, Post-administration","[1]; n = 6, x ± SD, 0.05 μM",0.1006 ± 0.0242^a
same,"APD, Post-administration","[1]; n = 6, x ± SD, 0.05 μM",0.1199 ± 0.0235^a
same,"APD50, Pre-administration","[1]; n = 6, x ± SD, 0.05 μM group",0.0385 ± 0.0090
same,"APD90, Pre-administration","[1]; n = 6, x ± SD, 0.05 μM group",0.0603 ± 0.0103
same,Effect on the APD value of the action potential of the papillary muscle (in words),[1]; screening stage,the strongest effect
same,Effect on the APD value of the action potential of the papillary muscle (in words),"[1]; screening stage, listed as Example 1",a certain degree of prolonged effects
same,"APD, Post-administration","[1]; screening stage, 0.0005 μM, about 20 min perfusion",0.0912
same,"APD, Post-administration","[1]; screening stage, 0.005 μM, about 20 min perfusion",0.1031
same,"APD, Post-administration","[1]; screening stage, 0.05 μM, about 20 min perfusion",0.1168
same,Number of animals developing atrial fibrillation compared to the vehicle group (in words),"[2]; 0.1 μM to 10 μM, dose-dependent",significantly decreased
same,Incidence (%) of atrial fibrillation,[2]; 0.1 μM,80%
same,Number of animals developing atrial fibrillation,[2]; 0.1 μM,4
same,Incidence of atrial fibrillation for ex vivo heart vs cyclovirobuxine D (in words),[2]; 1 μM,significantly lower
same,Incidence (%) of atrial fibrillation,[2]; 1 μM,33%
same,Number of animals developing atrial fibrillation,[2]; 1 μM,2
same,Incidence (%) of atrial fibrillation,[2]; 10 μM,0%
same,Number of animals developing atrial fibrillation,[2]; 10 μM,0
same,Exposures in plasma (AUC and Cmax values) vs cyclovirobuxine D (in words),[3],higher than that of cyclovirobuxine D
same,Half-life (T1/2) vs cyclovirobuxine D (in words),[3],shorter than that of cyclovirobuxine D
same,AUC(0-t),"[3]; male, Beagle, po, 2 mg/kg",505 ng·h/mL
same,Cmax,"[3]; male, Beagle, po, 2 mg/kg",43.4 ng/mL
same,Tmax,"[3]; male, Beagle, po, 2 mg/kg",2.67 h
same,half-life,"[3]; male, Beagle, po, 2 mg/kg",11.1 h

# From US10568892B2, “Cycloartane tetracyclic triterpenoid compound, preparation method therefor and use thereof” (Hefei Cosource Pharmaceuticals Inc., priority 2016, dated 2020)
